For 19 molecules, melting point and IC50 results are on record in patent US20090004185A1, “AMINO-SUBSTITUTED QUINAZOLINE DERIVATIVES AS INHIBITORS OF BETA-CATENIN/TCF-4 PATHWAY AND CANCER TREATMENT AGENTS” (WYETH, priority 2007, published 2009).

Where a name gives a salt, the structure may show the parent alone.

One data set concerns β-catenin/Tcf-4. The data set is described as follows: cells. The format is cell-based. The note with it: Homo sapiens, 24 hours of incubation with compound, ratio Firefly/Renilla luciferase. In short, it runs like this: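 SW480-derived lines with integrated reporters (Tcf-4-driven firefly luciferase; SV40 firefly as specificity control; SV40 Renilla for cell number/toxicity), treated 24 hours with titrated compounds, final 0.316% DMSO. Dual-luciferase read-out; firefly/Renilla ratio as % of control, duplicate plates, IC50 (nM) from curve fit.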

A further data set relates to SV40-Luc. The data set is described as follows: SV40-Luc control luciferase reporter assay, SV 5A8 cell line (SV40-Luc and SV40-R-Luc), control for non-specific inhibitors. The format is cell-based, human. The note with it: Homo sapiens, SV5A8, 24 h, SV 5A8 cells derived from SW480; 24 hours of incubation with compound; ratio Firefly/Renilla luciferase. The method, boiled down:
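SW480-derived lines with integrated reporters: SV 5A8 (SV40 firefly plus SV40 Renilla), Tcf 33.13 and Tcf 22C11 (Tcf-4 firefly plus SV40 Renilla). Cells seeded 1×10^4/well, compounds added 20-24 h later at titrated concentrations (final DMSO 0.316%) for 24 h. Firefly/Renilla ratio, as % of control, gave IC50 (nM).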
Background: A reporter such as luciferase makes a cellular process visible.

[1] abbreviates: SW480, 24 h, Tcf 33.13 cells derived from SW480.
[2] abbreviates: Tcf22C11, 24 h, Tcf 22C11 cells derived from SW480.

For `Cc1ccc2c(NCc3ccc(NC(=O)C4CCN(Cc5ccccc5)CC4)cc3)nc(N(C)C)nc2c1` (as salt: HCl) [Example 129, 1-benzyl-N-[4-({[2-(dimethylamino)-7-methylquinazolin-4-yl]amino}methyl)phenyl]piperidine-4-carboxamide], the melting point (as a rule, the temperature of the solid-liquid transition) was determined as 100 °C.

As for `Cc1ccc2c(NCc3ccc(NC(=O)c4ccc(Cl)nc4)cc3)nc(N(C)C)nc2c1` (as salt: hydrochloride) [Example 242, 6-chloro-N-[4-({[2-(dimethylamino)-7-methylquinazolin-4-yl]amino}methyl)phenyl]nicotinamide], the melting point fell in the range of 325 to 329 °C.

Molecule `CNc1nc(NCc2ccc(NC(=O)c3ccc(Cl)cc3)cc2)c2cc(Br)cc(C)c2n1` [Example 66, N-[4-({[6-bromo-8-methyl-2-(methylamino)quinazolin-4-yl]amino}methyl)phenyl]-4-chlorobenzamide] gave a melting point of 139 °C. Also, the IC50 (in general, the concentration that inhibits the measured activity by half) in the data set with β-catenin/Tcf-4 (setting [1]) amounted to 649 nM. Moreover, the IC50 in the data set on β-catenin/Tcf-4 (setting [2]) was 1010 nM. For the same molecule, in the data set on SV40-Luc, the IC50 was above 9790 nM.

Take `CC(=O)c1ccc2c(NCc3ccc(NC(=O)c4ccc(F)cc4)cc3)nc(N(C)C)nc2c1` [Example 94, N-[4-({[7-acetyl-2-(dimethylamino)quinazolin-4-yl]amino}methyl)phenyl]-4-fluorobenzamide]: the melting point was determined as 195 °C. The IC50 in the data set on SV40-Luc is above 20200 nM.

Molecule `O=C(Nc1ccc(CNc2nc(Cl)nc3cc(I)ccc23)cc1)c1ccc(Cl)nc1` [Example 109, 6-chloro-N-(4-{[(2-chloro-7-iodoquinazolin-4-yl)amino]methyl}phenyl)nicotinamide] gave a melting point of 315 °C.

For the molecule `O=C(Nc1ccc(CNc2nc(N3CCC3)nc3ccccc23)cc1)c1ccc(F)cc1` [Example 114, N-(4-{[(2-azetidin-1-ylquinazolin-4-yl)amino]methyl}phenyl)-4-fluorobenzamide], the melting point was 249 °C. The IC50 in the data set with β-catenin/Tcf-4 (setting [1]) came to 587 nM. The IC50 in the data set on β-catenin/Tcf-4 (setting [2]) is 870 nM. Further, the IC50 in the data set with SV40-Luc is above 5850 nM.

In turn, `O=C(Nc1ccc(CNc2nc(NC3CC3)nc3ccccc23)cc1)c1ccc(F)cc1` [Example 121, N-[4-({[2-(cyclopropylamino)quinazolin-4-yl]amino}methyl)phenyl]-4-fluorobenzamide] gave a melting point of 189 °C. Further, in the data set on β-catenin/Tcf-4 (setting [1]), the IC50 came out at 1140 nM. Moreover, the IC50 in the data set with β-catenin/Tcf-4 (setting [2]) amounted to 1720 nM. The IC50 in the data set with SV40-Luc is above 2920 nM.

The molecule `CC(C)(C)OC(=O)CNc1nc(NCc2ccc(NC(=O)c3ccc(F)cc3)cc2)c2ccccc2n1` [Example 126, tert-butyl N-[4-({4-[(4-fluorobenzoyl)amino]benzyl}amino)quinazolin-2-yl]glycinate] registered a melting point of 96 °C. The IC50 with β-catenin/Tcf-4 (setting [1]) came to 1070 nM. Besides, the IC50 in the data set with β-catenin/Tcf-4 (setting [2]) was determined as 1720 nM. Also, in the data set with SV40-Luc, the IC50 was above 2490 nM.

With `CNc1nc(NCc2ccc(NC(=O)C3CCN(Cc4ccccc4)CC3)cc2)c2ccc(C)cc2n1` [Example 130, 1-benzyl-N-[4-({[7-methyl-2-(methylamino)quinazolin-4-yl]amino}methyl)phenyl]piperidine-4-carboxamide], the melting point was found to be 128 °C. For the same molecule, in the data set on β-catenin/Tcf-4 (setting [1]), the IC50 came to 699 nM. Further, in the data set with β-catenin/Tcf-4 (setting [2]), the IC50 amounted to 798 nM. Moreover, the IC50 in the data set with SV40-Luc was above 2350 nM.

`Cc1ccc2c(NCc3ccc(NC(=O)C4CCN(Cc5ccccc5)CC4)cc3)nc(N3CCCCCC3)nc2c1` [Example 131, N-(4-{[(2-azepan-1-yl-7-methylquinazolin-4-yl)amino]methyl}phenyl)-1-benzylpiperidine-4-carboxamide] registered a melting point of 66 °C. Besides, the IC50 with β-catenin/Tcf-4 (setting [1]) was 966 nM. Moreover, in the data set on β-catenin/Tcf-4 (setting [2]), the IC50 came out at 1040 nM. Besides, the IC50 in the data set on SV40-Luc is above 7870 nM.

`CCNc1nc(NCc2ccc(NC(=O)C3CCN(Cc4ccccc4)CC3)cc2)c2ccc(C)cc2n1` [Example 132, 1-benzyl-N-[4-({[2-(ethylamino)-7-methylquinazolin-4-yl]amino}methyl)phenyl]piperidine-4-carboxamide] gave a melting point of 55 °C. The IC50 in the data set on β-catenin/Tcf-4 (setting [1]) is 1140 nM. The IC50 in the data set on β-catenin/Tcf-4 (setting [2]) is 1390 nM. Besides, in the data set on SV40-Luc, the IC50 was above 2150 nM.

Take `Cc1ccc2c(NCc3ccc(NC(=O)C4CCN(Cc5ccccc5)CC4)cc3)nc(N3CCCC3)nc2c1` [Example 133, 1-benzyl-N-(4-{[(7-methyl-2-pyrrolidin-1-ylquinazolin-4-yl)amino]methyl}phenyl)piperidine-4-carboxamide]: the melting point worked out at 96 °C. Also, in the data set with β-catenin/Tcf-4 (setting [1]), the IC50 was 793 nM. Further, the half-maximal inhibitory concentration (IC50) in the data set with β-catenin/Tcf-4 (setting [2]) is 669 nM. The IC50 in the data set with SV40-Luc was above 9350 nM.

`C=Cc1ccc2c(NCc3ccc(NC(=O)C4CCN(Cc5ccccc5)CC4)cc3)nc(N(C)C)nc2c1` [Example 150, 1-benzyl-N-[4-({[2-(dimethylamino)-7-vinylquinazolin-4-yl]amino}methyl)phenyl]piperidine-4-carboxamide] registered a melting point of 180 °C. Further, the IC50 in the data set with β-catenin/Tcf-4 (setting [1]) was determined as 169 nM. The IC50 in the data set with β-catenin/Tcf-4 (setting [2]) was determined as 268 nM. Besides, the IC50 in the data set on SV40-Luc is above 2400 nM.

`C/C=C/c1ccc2c(NCc3ccc(NC(=O)C4CCN(Cc5ccccc5)CC4)cc3)nc(N(C)C)nc2c1` [Example 151, 1-benzyl-N-{4-[({2-(dimethylamino)-7-[(1E)-prop-1-en-1-yl]quinazolin-4-yl}amino)methyl]phenyl}-piperidine-4-carboxamide] registered a melting point of 154 °C. Also, in the data set with β-catenin/Tcf-4 (setting [1]), the IC50 worked out at 726 nM. Also, the IC50 in the data set with β-catenin/Tcf-4 (setting [2]) was determined as 606 nM. In the data set on SV40-Luc, the IC50 is above 2530 nM.

The molecule `CNc1nc(NCc2ccc(NC(=O)c3ccc(Cl)nc3)cc2)c2cc([N+](=O)[O-])ccc2n1` [Example 184, 6-chloro-N-[4-({[2-(methylamino)-6-nitroquinazolin-4-yl]amino}methyl)phenyl]nicotinamide] displayed a melting point of 305 to 307 °C. In the data set on β-catenin/Tcf-4 (setting [1]), the IC50 is above 21600 nM. Besides, the IC50 in the data set with β-catenin/Tcf-4 (setting [2]) is above 21600 nM. The IC50 in the data set on SV40-Luc is above 21600 nM.

Regarding `CNc1nc(NCc2ccc(NC(=O)c3ccc(Cl)nc3)cc2)c2c(C)cccc2n1` [Example 194, 6-chloro-N-[4-({[5-methyl-2-(methylamino)quinazolin-4-yl]amino}methyl)phenyl]nicotinamide], the melting point lay in the range of 233 to 236 °C. Moreover, in the data set with SV40-Luc, the IC50 was above 5780 nM.

The molecule `CNc1nc(NCc2ccc(NC(=O)c3ccc(Cl)cc3)cc2)c2ccc(C)cc2n1` [Example 195, 4-chloro-N-[4-({[7-methyl-2-(methylamino)quinazolin-4-yl]amino}methyl)phenyl]benzamide] came in with a melting point of 264 to 266 °C. In addition, the IC50 in the data set on SV40-Luc is above 1160 nM.

For `CCCNc1nc(NCc2ccc(NC(=O)c3ccc(F)cc3)cc2)c2ccc(C)cc2n1` [Example 231, 4-fluoro-N-[4-({[7-methyl-2-(propylamino)quinazolin-4-yl]amino}methyl)phenyl]benzamide], the melting point fell in the range of 170 to 174 °C. Besides, the IC50 in the data set on SV40-Luc was above 2820 nM.

As for `Cc1ccc2c(NCc3ccc(NC(=O)c4ccc(F)cc4)cc3)nc(N3CCN[C@@H](C)C3)nc2c1` [Example 234, 4-fluoro-N-{4-[({7-methyl-2-[(3S)-3-methylpiperazin-1-yl]quinazolin-4-yl}amino)methyl]phenyl}benzamide], the melting point is 200 to 202 °C. In addition, the IC50 in the data set on SV40-Luc was above 6780 nM.
